# The source made the active and inactive calls. No cut-off for these calls is given here.
# System: Nucleic Acid
# Assay: Binding affinity to […] DNA oligomer d(CGATATATCG)2 (unknown origin) minor groove assessed as association constant by NMR
# Assay type: nucleic-acid assay
row,Ka,Structure (SMILES)
1,6.1 ×10⁴ /M,CC(C)c1sc(NC(=O)c2cc(NC(=O)c3cc(NC(=O)c4cccnc4)cn3C)cn2C)nc1C(=O)NCCCN(C)C
2,inactive,COc1cccc(/C=C/c2ccc(C(=O)Nc3cc(C(=O)NCCN4CCOCC4)n(C)c3)cc2)c1
3,inactive,CC(C)c1sc(NC(=O)c2cc(NC(=O)c3cc(NC=O)cn3C)cn2C)nc1C(=O)NCCCN(C)C
4,inactive,CC(=O)Nc1cn(C)c(C(=O)Nc2cc(C(=O)Nc3nc(C(=O)NCCCN(C)C)c(C(C)C)s3)n(C)c2)n1

# Reference: ChEMBL document CHEMBL3132808, “Exceptionally strong intermolecular association in hydrophobic DNA minor groove binders and their potential therapeutic consequences” (Medchemcomm, 2013)
